Assay results taken from PMC5891386 (Bioorganic & medicinal chemistry, 2018).

How the values were obtained:
[1] = test system: aspartate levels in cells; conditions: irrespective of PHGDH levels; cited from earlier work
[2] = Aqueous kinetic solubility; format: physicochemical; conditions: pH 7.4
[3] = test system: PHGDH; conditions: cited from earlier work

| Compound | Aqueous Solubility (kinetic) [2] | efficacy in vivo [3] | also measured |
| --- | --- | --- | --- |
| Cc1cc(C)nc(NC(=S)N2CCN(c3ccc(C(F)(F)F)cn3)CC2)c1 [Compound 27, N-(4,6-dimethylpyridin-2-yl)-4-(5-(trifluoromethyl)pyridin-2-yl)piperazine-1-carbothioamide] | – | – | aspartate levels in cells [1]: reduce aspartate levels in cells |
| Cc1cc(C)nc(NC(=S)N2CCCC(Nc3ccc(C(F)(F)F)cc3)C2)c1 (centres unmarked) [Compound 33] | below the limits of quantitation | – | – |
| Cc1cc(C)nc(NC(=S)N2CCC(Nc3cccc(C(F)(F)F)c3)CC2)c1 [Compound 37] | below the limits of quantitation | – | – |
| O=C(N/N=C/c1cc([N+](=O)[O-])ccc1O)c1ccc(O)cc1O [PKUMDL-WQ-2101] | – | efficacious in vivo | – |
| CCNC(=S)N/N=C/c1ccc(-c2ccc(C(=O)O)c(Cl)c2)o1 [PKUMDL-WQ-2201] | – | efficacious in vivo | – |
